Among the test systems are A549; CCRF-CEM; HCC 2998; HCT-15; HL-60; HOP-62; HOP-92; IGROV-1; NCI-H23; NCI-H460; OVCAR-4; SK-MEL-28; SK-MEL-5; SK-OV-3; SNB-19; SW-620; TK-10; UACC-257; UACC-62; RXF 393.
Common to all, as to experiment: inhibition of tumour cell growth, NCI panel, 48 h

Each structure is given as a SMILES string.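 Interpolation was linear, between the two tested concentrations surrounding the appropriate level; five concentrations were tested over 48 hours in 96-well plates. GI50 marks 50% less growth.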 The source made the active and inactive calls. Rule as the data show it: active = GI50 up to about 1.1 µM and inactive = higher. Some results are limits rather than exact numbers.

Take `CCOC(=O)C(=O)Nc1cccc(C)c1C`: the GI50 was > 100 µM (inactive) with A549; > 100 µM (inactive) in the test with CCRF-CEM; > 100 µM (inactive) in the test on HCC 2998; greater than 100 µM in the test with HCT-15; > 100 µM (inactive) in the test with HL-60; > 100 µM (inactive) in the test with HOP-62. In addition, the GI50 with HOP-92, in the test on IGROV-1, in the test on NCI-H23, with NCI-H460, in the test with OVCAR-4 and with SK-MEL-28 was > 100 µM (inactive) throughout. Besides, the GI50 in the test with SK-MEL-5, in the test on SK-OV-3, in the test with SNB-19, in the test on SW-620, with TK-10 and with UACC-257 was > 100 µM (inactive) each time. Further, in the test on UACC-62, the GI50 is > 100 µM (inactive).
In the case of `COc1cccc(C2C(C(=O)O)=C(CO)Oc3cc4c(cc32)OCO4)c1` (stereo unspecified), the GI50 with CCRF-CEM was > 100 µM (inactive); in the test on HCT-15, greater than 100 µM; with HL-60 it was > 100 µM (inactive); in the test with HOP-92, > 100 µM (inactive); in the test on IGROV-1, > 100 µM (inactive); in the test on NCI-H23 it was > 100 µM (inactive). Also, the GI50 with NCI-H460, in the test with SK-MEL-28, with SK-MEL-5, in the test on SK-OV-3, in the test on SNB-19 and in the test with SW-620 was > 100 µM (inactive) throughout. Besides, the GI50 in the test on TK-10 and with UACC-62 was > 100 µM (inactive) each time.
In the case of `CCOC(=O)/C(=C/c1cn(C(C)=O)c2ccccc12)P(=O)(OC)OC`, the GI50 in the test with A549 is 33.2 µM (inactive); in the test on CCRF-CEM it was 30 µM (inactive); in the test on HCC 2998, > 10 µM (inactive); with HCT-15, 29.7 µM; in the test with HL-60, 18 µM (inactive); with HOP-62 it was 63.4 µM (inactive). Besides, the GI50 in the test with HOP-92 is 31.1 µM (inactive); in the test on IGROV-1 it was 25.6 µM (inactive); with NCI-H23, 33.8 µM (inactive); with NCI-H460 it was 24.4 µM (inactive); in the test with OVCAR-4 it was 33.4 µM (inactive); with SK-MEL-28, 37.2 µM (inactive). Also, the GI50 was 23.1 µM (inactive) with SK-MEL-5; 25.1 µM (inactive) in the test on SK-OV-3; 41.8 µM (inactive) with SW-620; > 100 µM (inactive) in the test with TK-10; 19.1 µM (inactive) in the test on UACC-257.
As to `OCc1cn(C(c2ccccc2)(c2ccccc2)c2ccccc2)cn1`, the GI50 with A549 is > 100 µM (inactive); with CCRF-CEM it was > 100 µM (inactive); in the test with HCC 2998, > 100 µM (inactive); in the test on HCT-15, greater than 100 µM; in the test on HL-60, > 100 µM (inactive); with HOP-62 it was 44.5 µM (inactive). Further, the GI50 was 29.7 µM (inactive) with HOP-92; > 100 µM (inactive) with IGROV-1; > 100 µM (inactive) with NCI-H23; > 100 µM (inactive) with NCI-H460; > 100 µM (inactive) in the test on OVCAR-4; > 100 µM (inactive) in the test with SK-MEL-28. The GI50 was > 100 µM (inactive) in the test with SK-MEL-5; 66.4 µM (inactive) with SK-OV-3; > 100 µM (inactive) in the test with SNB-19; > 100 µM (inactive) in the test with SW-620; > 100 µM (inactive) in the test on TK-10; > 100 µM (inactive) with UACC-257.
Take `O=C(Nc1cccc2ccccc12)Nn1cnnc1`: the GI50 in the test with A549 is > 100 µM (inactive); in the test on CCRF-CEM, > 100 µM (inactive); in the test on HCC 2998 it was > 100 µM (inactive); in the test on HCT-15, greater than 100 µM; with HL-60 it was > 100 µM (inactive); in the test with HOP-62, > 100 µM (inactive). In addition, the GI50 in the test with HOP-92, with IGROV-1, in the test on NCI-H23, with NCI-H460, in the test on OVCAR-4 and in the test on SK-MEL-28 was > 100 µM (inactive) in each case. Also, the GI50 in the test with SK-MEL-5, in the test with SK-OV-3, in the test with SNB-19, with SW-620, in the test on TK-10 and with UACC-257 was > 100 µM (inactive) each time. For the same molecule, the GI50 in the test on UACC-62 is > 100 µM (inactive).
In the case of `C=COCCCOc1ccccc1`, the GI50 with A549 was > 100 µM (inactive); in the test with CCRF-CEM it was > 100 µM (inactive); with HCC 2998, > 100 µM (inactive); in the test on HCT-15, greater than 100 µM; in the test on HL-60, > 100 µM (inactive); with HOP-62, > 100 µM (inactive). Moreover, the GI50 in the test with IGROV-1 was 0.145 µM (active); with NCI-H23, > 100 µM (inactive); in the test on NCI-H460, > 100 µM (inactive); in the test on OVCAR-4 it was > 100 µM (inactive); in the test with RXF 393 it was > 100 µM (inactive); in the test on SK-MEL-28, > 100 µM (inactive). Moreover, the GI50 in the test with SK-MEL-5, in the test with SNB-19, in the test on SW-620 and in the test with TK-10 was > 100 µM (inactive) each time.
With `CCP(=O)(CC)C(Cl)(Cl)C(O)C(C)(C)C` (stereo unspecified), the GI50 in the test with A549 is > 100 µM (inactive); with CCRF-CEM, > 100 µM (inactive); in the test on HCC 2998, > 100 µM (inactive); in the test on HCT-15, greater than 100 µM; in the test with HL-60, > 10 µM (inactive); in the test on HOP-62 it was > 100 µM (inactive). Also, the GI50 in the test with HOP-92, in the test on IGROV-1, in the test on NCI-H23, with NCI-H460, with OVCAR-4 and in the test with SK-MEL-28 was > 100 µM (inactive) each time. In addition, the GI50 in the test with SK-MEL-5, in the test with SK-OV-3, in the test with SNB-19, in the test with SW-620, with TK-10 and with UACC-257 was > 100 µM (inactive) in each case.
With `CCc1c(-c2ccccc2)[nH]c2ccccc2c1=O`, the GI50 is 13.4 µM (inactive) in the test on A549; 72.4 µM (inactive) in the test with CCRF-CEM; 80.9 µM (inactive) in the test on HCC 2998; 28.2 µM with HCT-15; > 100 µM (inactive) in the test on HL-60; 47.4 µM (inactive) in the test on HOP-62. In addition, the GI50 with NCI-H23 was 55.3 µM (inactive); in the test on NCI-H460, 5.16 µM (inactive); in the test with OVCAR-4, 33.2 µM (inactive); in the test on RXF 393, 27.1 µM (inactive); in the test on SK-MEL-28 it was 67.9 µM (inactive); with SK-MEL-5, 27.4 µM (inactive). In addition, the GI50 in the test with SK-OV-3 was 28.1 µM (inactive); with SNB-19, > 100 µM (inactive); in the test on TK-10, 44.8 µM (inactive); with UACC-257, 64.7 µM (inactive); in the test with UACC-62, 28.8 µM (inactive).
On to `CC(=O)/N=C1/N(/C=C2\C(=O)Oc3ccccc3C2=O)C(=O)/C(=C/c2ccc(NC(C)=O)cc2)N1C`, for which the GI50 was > 100 µM (inactive) in the test with A549; > 100 µM (inactive) with CCRF-CEM; > 100 µM (inactive) in the test on HCC 2998; greater than 100 µM in the test with HCT-15; > 100 µM (inactive) in the test on HL-60; > 100 µM (inactive) in the test on HOP-62. For the same molecule, the GI50 in the test on IGROV-1, in the test on NCI-H23, in the test with NCI-H460, in the test with OVCAR-4, in the test with RXF 393 and with SK-MEL-28 was > 100 µM (inactive) each time. Further, the GI50 in the test with SK-MEL-5, in the test on SK-OV-3, in the test on SW-620, with UACC-257 and in the test on UACC-62 was > 100 µM (inactive) each time.
With `CC(C)c1cccc(C(C)C)c1OS(=O)(=O)NC(=O)OC(C(F)(F)F)C(F)(F)F`, the GI50 with A549 was 28.6 µM (inactive); with CCRF-CEM, 6.81 µM (inactive); with HCC 2998, 40.5 µM (inactive); with HCT-15, 34.1 µM; with HL-60 it was 37.6 µM (inactive); with HOP-62, 34.8 µM (inactive). Further, the GI50 in the test with HOP-92 is 21.6 µM (inactive); in the test on IGROV-1, > 100 µM (inactive); in the test on NCI-H23 it was 45.7 µM (inactive); with NCI-H460, 46.7 µM (inactive); in the test on OVCAR-4, 50.1 µM (inactive); in the test on SK-MEL-28, > 100 µM (inactive). Also, the GI50 is 53.2 µM (inactive) in the test on SK-MEL-5; 46.7 µM (inactive) in the test on SK-OV-3; 28.2 µM (inactive) in the test on SNB-19; 51.6 µM (inactive) with SW-620; > 100 µM (inactive) in the test on TK-10; 53.7 µM (inactive) in the test on UACC-257.
As to `C=CS(=O)(=O)CCN1CC1`, the GI50 was > 10 µM (inactive) in the test on A549; > 10 µM (inactive) in the test with CCRF-CEM; > 10 µM (inactive) in the test on HCC 2998; greater than 10 µM in the test on HCT-15; > 10 µM (inactive) in the test with HL-60; > 10 µM (inactive) in the test on HOP-62. Besides, the GI50 in the test with HOP-92, with IGROV-1, with NCI-H23, in the test on OVCAR-4, in the test with SK-MEL-28 and in the test on SK-MEL-5 was > 10 µM (inactive) in each case. Further, the GI50 with SK-OV-3, with SW-620, in the test with TK-10, in the test on UACC-257 and in the test on UACC-62 was > 10 µM (inactive) each time.
With `Cc1ccc(S(=O)(=O)N2CCCSCC2)cc1`, the GI50 in the test with A549 was > 100 µM (inactive); in the test with CCRF-CEM it was > 100 µM (inactive); with HCC 2998, > 100 µM (inactive); in the test with HCT-15 it was greater than 100 µM; in the test on HOP-92, > 100 µM (inactive); in the test on NCI-H23, > 100 µM (inactive). For the same molecule, the GI50 in the test on NCI-H460 is > 100 µM (inactive); in the test on OVCAR-4, > 100 µM (inactive); in the test with RXF 393, 62.7 µM (inactive); in the test on SK-MEL-28, > 100 µM (inactive); with SK-MEL-5, > 100 µM (inactive); in the test with SK-OV-3 it was > 100 µM (inactive). In addition, the GI50 in the test on SNB-19, in the test with SW-620, in the test with TK-10 and with UACC-257 was > 100 µM (inactive) throughout.
